The record followed here is PMC5666006, “Combating virulence of Gram-negative bacilli by OmpA inhibition” (Scientific Reports, 2017).

Where a SMILES comes first, the peptide text is derived from it. [ ]: non-standard residue; d: D form. Some results are limits rather than exact numbers.

For orientation: viability means a read-out of living cells in per cent, often relative to untreated cells. By MIC is commonly meant the lowest concentration that inhibits growth of the organism. Read a low MIC as a more susceptible organism.

Series [1] is described as follows: Peptide toxicity, MTT assay. The class given is cell-based, human. The conditions noted are these: human, A549 cells. The method, then: (§1) Human type II pneumocyte cell line A549 derived from a human lung carcinoma were obtained from American Type Culture Collection (LGC, UK) and were grown in DMEM medium (Invitrogen, Spain) supplemented with 10% heat-inactivated fetal bovine serum, vancomycin (50 μg/mL), gentamicin (20 μg/mL), amphotericin B (0.25 μg/mL) (Invitrogen, Spain) and 1% HEPES (Invitrogen, Spain) in a humidified incubator, 5% CO2 at 37 °C. A549 cells were routinely passaged every 3–4 days. The cells were seeded 24 h in 96-well plates for cellular viability assay, and in 24 well plates for adhesion and immnunofluorescence assays.
(§2) Peptide toxicity. […] Prior the evaluation of the peptides cytotoxicity, A549 cells were washed three times with prewarmed PBS. Then, peptides cytotoxicity was initially assessed quantitatively by monitoring the mitochondrial reduction activity using the MTT assay as described previously. The percentage of […] was calculated from the optical density (OD) as follow: [(OD of treated cells / mean OD of non-treated cell) × 100].
(§3) Table S2. Percentages of A549 cellular viability assessed through mitochondrial reduction
(§4) activity (MTT assay) in presence of anti-OmpA hexapeptides and control peptides (SXV4 and
(§5) COL). COL: colistin. ND: not determined.
(§6) Peptides 0.25 mg/mL 0.5 mg/mL 1 mg/mL 5 mg/mL

Series [2] concerns A. baumannii ATCC 17978. The class given is cell-based. How it is done: (§7) In the initial screening, the bactericidal activity of the synthetic peptides and their toxicity on human lung epithelial cells (A549) were evaluated.
(§8) Table S1. MICs of the six hexapeptides for A. baumannii and E. coli.
(§9) Peptides P. aeruginosa PaO1
(§10) MIC: minimal inhibitory concentration

Series [3] deals with P. aeruginosa PaO1. The class given is cell-based. The method, then:
as §7, §8, §9, §10

Series [4] has as its system E. coli ATCC 25922. The series is classed as cell-based. The method, then: as §7, §8, §9, §10
Series [5] concerns A549 cells. As to the kind of experiment: Peptide toxicity, MTT assay. The class given is cell-based, human. The conditions noted are these: 48 h, MTT, mean ± SEM. How it is done: as §1, §2, §3, §4, §5, §6
In general terms: Tetrazolium dyes change colour on reduction, which living cells bring about.

As to `N=C(N)NCCC[C@@H]1NC(=O)[C@H](Cc2c[nH]c3ccccc23)NC(=O)[C@H]2CCCN2C(=O)[C@H](CCCNC(=N)N)NC(=O)[C@H](Cc2c[nH]c3ccccc23)NC(=O)[C@H]2CCCN2C1=O` [AOA-1] (cyclo(R[dP]WR[dP]W)), the viability at 48 h, 250 µg/mL in series [1] worked out at 98.89 ± 0.41%. In series [1], the viability at 48 h, 500 µg/mL worked out at 99.69 ± 0.26%. Moreover, the viability at 48 h, 1000 µg/mL in series [1] turned out to be 99.7 ± 0.38%. Moreover, the MIC in series [2], in series [3] and in series [4] was greater than 500 µg/mL throughout.
Take `N=C(N)NCCC[C@@H]1NC(=O)[C@@H](Cc2c[nH]c3ccccc23)NC(=O)[C@@H]2CCCN2C(=O)[C@H](CCCNC(=N)N)NC(=O)[C@@H](Cc2c[nH]c3ccccc23)NC(=O)[C@@H]2CCCN2C1=O` [AOA-3] (cyclo(P[dW]RP[dW]R)): in series [1], the viability at 48 h, 250 µg/mL came to 99.27 ± 0.21%; the viability at 48 h, 500 µg/mL came to 99.7 ± 0.14%; the viability at 48 h, 1000 µg/mL was found to be 99.36 ± 0.3%. The MIC in series [2] is on record as greater than 500 µg/mL. The MIC in series [3] was greater than 500 µg/mL. Also, the MIC in series [4] is listed as greater than 500 µg/mL.
For `N=C(N)NCCC[C@H]1NC(=O)[C@H](Cc2c[nH]c3ccccc23)NC(=O)[C@@H]2CCCN2C(=O)[C@@H](CCCNC(=N)N)NC(=O)[C@H](Cc2c[nH]c3ccccc23)NC(=O)[C@@H]2CCCN2C1=O` [AOA-4] (cyclo(PW[dR]PW[dR])), in series [1], the viability at 48 h, 250 µg/mL was determined as 99.47 ± 0.39%; the viability at 48 h, 500 µg/mL worked out at 99.77 ± 0.17%; the viability at 48 h, 1000 µg/mL was 100.1 ± 0.18%. This molecule registered an MIC in series [2] greater than 500 µg/mL. The molecule also came in with an MIC in series [3] greater than 500 µg/mL. In series [4], the MIC is greater than 500 µg/mL.
For the molecule `O=C1N[C@@H](CO)C(=O)N2CCC[C@@H]2C(=O)N[C@@H](Cc2c[nH]c3ccccc23)C(=O)N[C@@H](CO)C(=O)N2CCC[C@@H]2C(=O)N[C@H]1Cc1c[nH]c2ccccc12` [AOA-5] (cyclo(S[dP]WS[dP]W)), in series [1], the viability at 48 h, 250 µg/mL stood at 98.86 ± 0.08%; the viability at 48 h, 500 µg/mL was 100 ± 0.39%; the viability at 48 h, 1000 µg/mL came out at 100.1 ± 0.46%. Also, the MIC in series [2] was greater than 500 µg/mL. This molecule also returned an MIC in series [3] greater than 500 µg/mL. The same molecule yielded an MIC in series [4] greater than 500 µg/mL.
For the molecule `O=C(O)CC[C@@H]1NC(=O)[C@H](Cc2c[nH]c3ccccc23)NC(=O)[C@H]2CCCN2C(=O)[C@H](CCC(=O)O)NC(=O)[C@H](Cc2c[nH]c3ccccc23)NC(=O)[C@H]2CCCN2C1=O` [AOA-6] (cyclo(E[dP]WE[dP]W)), in series [1], the viability at 48 h, 250 µg/mL was 98.31 ± 0.35%; the viability at 48 h, 500 µg/mL stood at 99.14 ± 0.44%; the viability at 48 h, 1000 µg/mL came to 99.38 ± 0.34%. In series [2], this molecule yielded an MIC greater than 500 µg/mL. The MIC in series [3] is recorded as greater than 500 µg/mL. In series [4], this molecule displayed an MIC greater than 500 µg/mL.
As for `CC(=O)N[C@@H](Cc1c[nH]c2ccccc12)C(=O)N1CCC[C@@H]1C(=O)N[C@@H](CCCNC(=N)N)C(=O)N[C@@H](Cc1c[nH]c2ccccc12)C(=O)N1CCC[C@@H]1C(=O)N[C@@H](CCCNC(=N)N)C(=O)O` [SXV4] (Ac-W[dP]RW[dP]R-OH), the viability at 48 h, 250 µg/mL in series [1] was determined as 98.17 ± 0.6%. In series [1], the viability at 48 h, 500 µg/mL was found to be 98.79 ± 0.28%. The viability at 48 h, 1000 µg/mL in series [1] was 98.55 ± 0.21%. Further, the MIC in series [2], in series [3] and in series [4] was greater than 500 µg/mL each time.
Turning to colistin [reference compound], the “Cellular viability (%)” value in series [5] (A549, 0.5 mg/mL) came to 91.85 ± 2.67%; in series [5] (A549, 1 mg/mL) it was 68.39 ± 2.93%; in series [5] (A549, 5 mg/mL), 9.88 ± 0.42%.
